The values below come from PMC9317481, “Design and Synthesis of New Hydantoin Acetanilide Derivatives as Anti-NSCLC Targeting EGFR^L858R/T790M Mutations” (Pharmaceuticals, 2022).

For orientation: melting point means the temperature of the solid-liquid transition. By IC50 is commonly meant the midpoint of a concentration-inhibition curve.

In data set [1] the test system is A549, H1975, and PC9 cell lines. Kind of data set: MTT antiproliferative assay, average of the three NSCLC cell lines. Particulars: Homo sapiens, read-out: IC50 (µM) Average. On the technique in general: Tetrazolium dyes change colour on reduction, which living cells bring about.
Data set [2] deals with PC9 cells. As to the kind of experiment: MTT antiproliferative assay, PC9. The settings on record: Homo sapiens, PC-9, read-out: IC50 (µM) PC9.
Data set [3] relates to H1975 cells. Kind of data set: MTT antiproliferative assay, H1975. Particulars: Homo sapiens, NCI-H1975, read-out: IC50 (µM) H1975.
Data set [4] deals with A549 cells. As to the kind of experiment: MTT antiproliferative assay, A549. Particulars: Homo sapiens, A549, read-out: IC50 (µM) A549.
Data set [5] concerns the target EGFR^WT (Homo sapiens, UniProt P00533). As to the kind of experiment: EGFR kinase assay (wild type).
Data set [6] concerns the target EGFR^T790M (Homo sapiens, UniProt P00533, T790M). As to the kind of experiment: EGFR kinase assay (T790M).
Data set [7] addresses EGFR^L858R (Homo sapiens, UniProt P00533, L858R). As to the kind of experiment: EGFR kinase assay (L858R).
Data set [8] concerns WI-38 normal cells. As to the kind of experiment: MTT cytotoxicity on normal fibroblast WI-38 cells. Particulars: for IC50: Homo sapiens, WI-38, read-out: WI-38, IC50 (µM).
Description: The new prepared candidates 5a–5n were evaluated for their antitumor activities against four selected cell lines, the adenocarcinomic human alveolar basal epithelial cells NCI-A549, NCI-H1975, human pulmonary adenocarcinoma PC9, and the fibroblast-like fetal lung cells WI-38 (purchased from American Type Culture Collection (ATCC), United States of America), using an MTT assay [26], as described earlier [27].
For data set [9], the system named is Akt. As to the kind of experiment: Akt enzyme assay (Phospho-Ser473 ELISA) in A549 cells. Type of data set: cell-based, human. The settings on record: read-out: Enzymatic Inhibition, IC50, (nM) Akt. (ELISA stands for enzyme-linked immunosorbent assay.)
Description: Akt expression level was assayed using the Phospho Sandwich Akt (Phospho-Ser473) ELISA Kit (Cat. # MBS9511022, MyBioSource, San Diego, CA, USA) containing the components necessary for the semi-quantitative determination of Akt concentrations within experimental cell lysate samples. The assay was performed according to company protocols: the lysates were diluted with assay diluent and 100 μL/well was dispensed, wrapped with parafilm, and incubated for 2 h. They were shaken with RT or overnight at 4 °C. The plate was washed 3 times with 1× Wash Buffer 300 μL/well with a vacuum-based plate washer. Then, the plate was stricken on absorbent paper to remove as much residual liquid as possible. The Detection Antibody was diluted to 1× and 100 μL/well was dispensed, wrapped with parafilm, and incubated on a shaker for 2 hrs at RT, and the washing step was repeated. Streptavidin-HRP was diluted to 1× and 100 μL/well was dispensed, wrapped with parafilm, and incubated on a shaker for 30 min at RT. Ready-to-use substrate was brought to RT and 100 μL/well was dispensed and the reaction was allowed to incubate on an orbital shaker for 20–30 min. The reaction was stopped with stop solution 100 μL/well. The wells turned from blue to yellow and were read at 450 nm.
In data set [10] the test system is ERK. Kind of data set: ERK enzyme assay (ELISA) in A549 cells. The settings on record: read-out: Enzymatic Inhibition, IC50, (nM) ERK. Type of data set: cell-based, human.
Description: ERK ELISA Kit (Cat. # E4317-100, BioVision, Inc., Waltham, MA, USA) was used for the in vitro quantitative determination of Human ERK. Firstly, the plate was washed 2 times with Wash Solution before the standard, sample, and control wells were added. A total of 100 μL of each standard or sample was added into appropriate wells. […] The cover was removed and the plate content was discarded without washing or letting the wells completely dry. A total of 0.1 mL of Biotin-detection antibody work solution was added into the above wells. […] The solution was discarded and washed 3 times with Wash Solution. It was washed by filling each well with Wash Buffer (350 μL) using a multi-channel pipette or auto-washer. It was soaked for 1–2 min, and then all residual wash-liquid was removed from the wells by aspiration. After the last wash, any remaining wash buffer was removed by aspirating or decanting. The plate was clapped on absorbent filter papers or other absorbent materials. […] The solution was discarded and washed 5 times with wash solution as mentioned before. […] A total of 50 μL of Stop Solution was added to each well. The result was read at 450 nm within 20 min.

EGFR^T790M, sequence (P00533 25-1210 T790M): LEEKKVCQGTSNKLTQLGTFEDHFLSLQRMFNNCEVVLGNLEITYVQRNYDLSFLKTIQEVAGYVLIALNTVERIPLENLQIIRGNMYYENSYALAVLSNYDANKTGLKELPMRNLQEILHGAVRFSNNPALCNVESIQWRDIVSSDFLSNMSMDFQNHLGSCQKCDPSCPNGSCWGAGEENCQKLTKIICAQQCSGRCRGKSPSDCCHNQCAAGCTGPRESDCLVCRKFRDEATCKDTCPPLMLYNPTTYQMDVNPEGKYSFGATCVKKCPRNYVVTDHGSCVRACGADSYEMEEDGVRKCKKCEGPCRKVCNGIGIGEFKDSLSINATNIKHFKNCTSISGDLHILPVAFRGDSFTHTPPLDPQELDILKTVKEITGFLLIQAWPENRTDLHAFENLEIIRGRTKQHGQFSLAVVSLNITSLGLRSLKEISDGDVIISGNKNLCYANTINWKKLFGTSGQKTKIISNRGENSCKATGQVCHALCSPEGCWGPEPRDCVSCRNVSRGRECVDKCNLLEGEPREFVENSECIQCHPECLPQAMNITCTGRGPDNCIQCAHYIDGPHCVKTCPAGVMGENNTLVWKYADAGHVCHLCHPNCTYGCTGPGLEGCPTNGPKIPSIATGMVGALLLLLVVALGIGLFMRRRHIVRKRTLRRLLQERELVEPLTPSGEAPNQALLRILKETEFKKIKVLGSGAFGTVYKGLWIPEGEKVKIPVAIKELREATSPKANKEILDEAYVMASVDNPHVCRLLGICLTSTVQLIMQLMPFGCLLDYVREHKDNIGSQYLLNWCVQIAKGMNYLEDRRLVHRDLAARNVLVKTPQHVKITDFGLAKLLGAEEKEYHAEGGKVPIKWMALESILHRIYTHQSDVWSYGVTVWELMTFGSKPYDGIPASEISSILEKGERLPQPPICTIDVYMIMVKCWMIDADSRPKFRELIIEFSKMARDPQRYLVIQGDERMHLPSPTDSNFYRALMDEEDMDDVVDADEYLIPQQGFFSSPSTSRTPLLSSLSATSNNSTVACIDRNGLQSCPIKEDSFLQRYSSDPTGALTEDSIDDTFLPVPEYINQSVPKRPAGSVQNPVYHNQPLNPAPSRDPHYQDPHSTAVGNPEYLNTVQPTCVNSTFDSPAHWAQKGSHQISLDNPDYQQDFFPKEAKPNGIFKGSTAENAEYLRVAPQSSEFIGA
EGFR^L858R, sequence (P00533 25-1210 L858R): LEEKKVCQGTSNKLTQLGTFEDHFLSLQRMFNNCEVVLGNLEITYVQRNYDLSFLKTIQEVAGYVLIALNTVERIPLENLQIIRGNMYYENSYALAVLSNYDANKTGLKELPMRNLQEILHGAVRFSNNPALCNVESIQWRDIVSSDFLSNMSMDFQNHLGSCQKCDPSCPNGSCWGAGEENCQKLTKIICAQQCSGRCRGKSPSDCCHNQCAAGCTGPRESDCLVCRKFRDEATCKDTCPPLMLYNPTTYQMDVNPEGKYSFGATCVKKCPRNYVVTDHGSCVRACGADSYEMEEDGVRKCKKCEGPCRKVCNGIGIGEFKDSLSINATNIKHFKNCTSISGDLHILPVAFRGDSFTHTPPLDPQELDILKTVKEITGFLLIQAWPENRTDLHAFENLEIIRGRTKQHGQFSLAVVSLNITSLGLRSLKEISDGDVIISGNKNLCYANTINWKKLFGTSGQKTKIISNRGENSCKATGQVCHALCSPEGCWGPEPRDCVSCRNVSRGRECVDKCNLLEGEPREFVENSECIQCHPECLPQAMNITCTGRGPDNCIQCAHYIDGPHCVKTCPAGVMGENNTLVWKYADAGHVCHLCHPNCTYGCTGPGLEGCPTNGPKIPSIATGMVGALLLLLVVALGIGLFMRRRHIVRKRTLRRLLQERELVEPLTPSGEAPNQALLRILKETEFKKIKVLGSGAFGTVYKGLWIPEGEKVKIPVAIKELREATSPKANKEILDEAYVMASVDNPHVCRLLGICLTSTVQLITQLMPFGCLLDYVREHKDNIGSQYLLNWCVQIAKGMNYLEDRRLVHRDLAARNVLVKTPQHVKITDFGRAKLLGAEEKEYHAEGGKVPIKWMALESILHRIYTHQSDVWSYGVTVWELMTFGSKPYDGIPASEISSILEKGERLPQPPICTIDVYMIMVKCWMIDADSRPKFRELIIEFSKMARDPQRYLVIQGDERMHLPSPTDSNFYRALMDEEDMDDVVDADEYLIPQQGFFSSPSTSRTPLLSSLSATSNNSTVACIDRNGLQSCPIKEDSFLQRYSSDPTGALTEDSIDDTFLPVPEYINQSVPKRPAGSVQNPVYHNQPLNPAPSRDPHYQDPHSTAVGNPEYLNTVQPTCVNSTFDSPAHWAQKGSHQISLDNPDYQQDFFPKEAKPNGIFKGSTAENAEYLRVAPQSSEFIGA
EGFR^WT, sequence (P00533 25-1210): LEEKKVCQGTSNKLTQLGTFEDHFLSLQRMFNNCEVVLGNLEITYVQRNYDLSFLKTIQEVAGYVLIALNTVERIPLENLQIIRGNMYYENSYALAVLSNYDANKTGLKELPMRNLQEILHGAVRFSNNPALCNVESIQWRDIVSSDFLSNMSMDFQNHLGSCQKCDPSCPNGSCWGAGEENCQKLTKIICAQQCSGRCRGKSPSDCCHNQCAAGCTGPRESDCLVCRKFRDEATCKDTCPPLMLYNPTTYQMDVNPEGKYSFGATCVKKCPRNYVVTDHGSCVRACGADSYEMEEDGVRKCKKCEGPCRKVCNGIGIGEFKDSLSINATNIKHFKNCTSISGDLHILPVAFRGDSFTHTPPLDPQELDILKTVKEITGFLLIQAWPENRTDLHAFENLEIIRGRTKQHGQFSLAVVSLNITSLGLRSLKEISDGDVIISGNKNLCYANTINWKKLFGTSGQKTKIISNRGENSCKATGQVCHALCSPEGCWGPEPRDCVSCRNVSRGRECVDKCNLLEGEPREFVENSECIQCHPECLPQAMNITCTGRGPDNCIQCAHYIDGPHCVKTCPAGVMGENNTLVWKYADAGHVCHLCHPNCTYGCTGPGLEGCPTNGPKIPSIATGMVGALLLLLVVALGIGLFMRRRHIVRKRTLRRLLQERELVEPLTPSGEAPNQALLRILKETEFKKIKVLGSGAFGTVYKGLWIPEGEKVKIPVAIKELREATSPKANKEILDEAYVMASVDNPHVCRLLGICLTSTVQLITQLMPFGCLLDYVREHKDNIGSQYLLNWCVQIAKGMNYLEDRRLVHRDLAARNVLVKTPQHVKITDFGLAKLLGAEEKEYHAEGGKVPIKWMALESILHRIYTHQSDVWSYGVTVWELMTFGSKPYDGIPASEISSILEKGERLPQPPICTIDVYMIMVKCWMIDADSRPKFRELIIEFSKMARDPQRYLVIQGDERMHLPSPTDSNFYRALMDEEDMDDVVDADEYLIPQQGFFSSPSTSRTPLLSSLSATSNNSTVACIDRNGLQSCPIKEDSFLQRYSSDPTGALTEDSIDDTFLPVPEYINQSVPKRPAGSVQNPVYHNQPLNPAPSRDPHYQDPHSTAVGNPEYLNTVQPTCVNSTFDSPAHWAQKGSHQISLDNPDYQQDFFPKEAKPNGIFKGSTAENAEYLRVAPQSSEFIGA

In turn, `CC1(c2ccccc2)NC(=O)N(CC(=O)Nc2ccc(S(N)(=O)=O)cc2)C1=O` (centres unmarked) [5b, N-(4-aminosulphonylphenyl)-2-(4-methyl-2,5-dioxo-4-phenylimidazolidin-1-yl)acetamide] yielded a melting point of 122 to 125 °C. Moreover, in [1], the IC50 was found to be 9.29 µM. Besides, the IC50 in data set [2] stood at 5.12 ± 0.56 µM. In addition, the IC50 in data set [3] came to 8.2 ± 0.45 µM. The IC50 in data set [4] amounted to 14.5 ± 0.92 µM.

The compound `COc1ccc(NC(=O)CN2C(=O)NC(C)(c3ccccc3)C2=O)cc1Cl` (centres unmarked) [5c, N-(3-chloro-4-methoxyphenyl)-2-(4-methyl-2,5-dioxo-4-phenylimidazolidin-1-yl)acetamide] gave a melting point of 163 to 166 °C. Besides, in data set [1], the IC50 was 56 µM. Also, the IC50 in data set [2] was 21.3 ± 2.31 µM. In addition, in [3], the IC50 came out at 55.3 ± 3.01 µM. Also, the IC50 in [4] was found to be 91.4 ± 5.75 µM.

`COc1ccc(C)cc1NC(=O)CN1C(=O)NC(C)(c2ccccc2)C1=O` (centres unmarked) [5d, N-(2-methoxy-5-methylphenyl)-2-(4-methyl-2,5-dioxo-4-phenylimidazolidin-1-yl)acetamide] came in with a melting point of 170 to 173 °C. Besides, the IC50 in data set [1] was 18.4 µM. Also, in data set [2], the IC50 was determined as 7.5 ± 0.81 µM. Also, the IC50 in [3] came out at 11.9 ± 0.65 µM. Also, the concentration for half-maximal inhibition (IC50) in data set [4] is 35.8 ± 2.26 µM.

For the compound `CC1(c2ccccc2)NC(=O)N(CC(=O)Nc2ccc(F)cc2)C1=O` (centres unmarked) [5e, N-(4-fluorophenyl)-2-(4-methyl-2,5-dioxo-4-phenylimidazolidin-1-yl)acetamide], the melting point lay within 226 to 228 °C. Besides, the IC50 in data set [1] stood at 6.35 µM. Also, in data set [2], the IC50 was found to be 2.52 ± 0.27 µM. For the same compound, the IC50 in [3] is 9.34 ± 0.51 µM. Besides, the concentration for half-maximal inhibition (IC50) in data set [4] turned out to be 7.19 ± 0.45 µM.

The compound `CC1(c2ccccc2)NC(=O)N(CC(=O)Nc2ccccc2F)C1=O` (centres unmarked) [5f, N-(2-fluorophenyl)-2-(4-methyl-2,5-dioxo-4-phenylimidazolidin-1-yl)acetamide] had a melting point of 153 to 155 °C. Also, in [1], the IC50 is 2.57 µM. In data set [2], the IC50 came out at 4.4 ± 0.48 µM. The compound further gave an IC50 in data set [5] of 0.06 ± 0.011 µM. Further, inhibition in data set [6] was half-maximal at 0.26 ± 0.005 µM (IC50). The IC50 in [3] came to 1.38 ± 0.07 µM. In [7], the IC50 was determined as 0.17 ± 0.003 µM. Besides, in data set [8], the IC50 was 42.5 ± 2.32 µM. Also, the “fold superior to the reference erlotinib on WI-38” value in data set [8] (ratio of WI-38 IC50 versus erlotinib) was determined as 2.3 fold. In addition, the IC50 in data set [4] is 1.94 ± 0.12 µM.

Consider `CC1(c2ccccc2)NC(=O)N(CC(=O)Nc2cccc(F)c2)C1=O` (centres unmarked) [5g, N-(3-fluorophenyl)-2-(4-methyl-2,5-dioxo-4-phenylimidazolidin-1-yl)acetamide], for which the melting point was in the range of 182 to 185 °C. The IC50 in [1] was found to be 18.7 µM. The IC50 in [2] worked out at 11.5 ± 1.25 µM. For the same compound, in [3], the IC50 came to 6.84 ± 0.37 µM. Also, in data set [4], the IC50 came out at 37.6 ± 2.37 µM.

With `CC1(c2ccccc2)NC(=O)N(CC(=O)Nc2ccc(F)c(F)c2)C1=O` (centres unmarked) [5h, N-(3,4-difluorophenyl)-2-(4-methyl-2,5-dioxo-4-phenylimidazolidin-1-yl)acetamide], the melting point was 195 to 198 °C. Moreover, the IC50 in data set [1] worked out at 16.2 µM. The IC50 in data set [2] was 15.4 ± 1.67 µM. For the same compound, the IC50 in data set [3] came out at 21.3 ± 1.16 µM. In addition, in data set [4], the IC50 was 11.9 ± 0.75 µM.

Regarding `CC1(c2ccccc2)NC(=O)N(CC(=O)Nc2ccc(F)c(F)c2F)C1=O` (centres unmarked) [5i, N-(2,3,4-trifluorophenyl)-2-(4-methyl-2,5-dioxo-4-phenylimidazolidin-1-yl)acetamide], the melting point lay within 205 to 210 °C. Besides, in data set [1], the IC50 was 6.93 µM. For the same compound, in data set [2], the IC50 turned out to be 6.06 ± 0.35 µM. The IC50 in data set [3] was found to be 14 ± 0.76 µM. Besides, the IC50 in data set [4] is 0.73 ± 0.05 µM.

`COc1ccc(NC(=O)CN2C(=O)NC(C)(c3ccccc3)C2=O)c(C)c1` (centres unmarked) [5j, N-(4-methoxy-2-methylphenyl)-2-(4-methyl-2,5-dioxo-4-phenylimidazolidin-1-yl)acetamide] displayed a melting point of 143 to 146 °C. In addition, the IC50 in data set [1] was 15 µM. The IC50 in [2] stood at 9.97 ± 1.08 µM. In addition, the IC50 in [3] came to 30.9 ± 1.68 µM. Moreover, in data set [4], the IC50 was found to be 4.11 ± 0.26 µM.

With `CC1(c2ccccc2)NC(=O)N(CC(=O)Nc2ccc(F)c(Cl)c2)C1=O` (centres unmarked) [5k, N-(3-chloro-4-fluorophenyl)-2-(4-methyl-2,5-dioxo-4-phenylimidazolidin-1-yl)acetamide], the melting point is 170 to 173 °C. Moreover, the IC50 in data set [1] came to 25.9 µM. Further, the IC50 in data set [2] is 3.25 ± 0.35 µM. In data set [3], the IC50 stood at 5.84 ± 0.32 µM. The IC50 in [4] worked out at 68.6 ± 4.32 µM.

The compound `CCOc1ccc(NC(=O)CN2C(=O)NC(C)(c3ccccc3)C2=O)cc1` (centres unmarked) [5l, N-(4-ethoxyphenyl)-2-(4-methyl-2,5-dioxo-4-phenylimidazolidin-1-yl)acetamide] gave a melting point of 153 to 155 °C. Besides, in [1], the IC50 was determined as 17.6 µM. Also, the IC50 in [2] is 6.69 ± 0.73 µM. The IC50 in [3] came out at 43.8 ± 2.39 µM. The IC50 in data set [4] worked out at 2.37 ± 0.15 µM.

Regarding `COc1ccccc1NC(=O)CN1C(=O)NC(C)(c2ccccc2)C1=O` (centres unmarked) [5m, N-(2-methoxyphenyl)-2-(4-methyl-2,5-dioxo-4-phenylimidazolidin-1-yl)acetamide], the melting point lay in the range of 85 to 90 °C. Also, the IC50 in data set [1] was 14.3 µM. Further, the IC50 in [2] came to 28.3 ± 3.08 µM. In addition, in [3], the IC50 stood at 2.27 ± 0.12 µM. In data set [4], the IC50 came to 12.3 ± 0.78 µM.

On to `COc1cccc(NC(=O)CN2C(=O)NC(C)(c3ccccc3)C2=O)c1` (centres unmarked) [5n, N-(3-methoxyphenyl)-2-(4-methyl-2,5-dioxo-4-phenylimidazolidin-1-yl)acetamide], for which the melting point fell in the range of 148 to 151 °C. Moreover, in data set [1], the IC50 turned out to be 8.7 µM. Further, the IC50 in data set [2] was 6.87 ± 0.75 µM. In addition, the IC50 in [3] came to 18.8 ± 1.02 µM. Moreover, the IC50 in [4] was found to be 0.42 ± 0.03 µM.

As to `C#Cc1cccc(Nc2ncnc3cc(OCCOC)c(OCCOC)cc23)c1` [Erlotinib, erlotinib, reference compound], the IC50 in [1] stood at 11.3 µM; in data set [2], 16.3 ± 0.84 µM; in data set [9], 25.4 nM; in data set [10], 17.5 ± 0.18 nM; in data set [3] it was 9.7 ± 0.53 µM; in [8], 18.6 ± 1.24 µM. Further, the IC50 in data set [4] turned out to be 7.81 ± 0.43 µM.
